Source: patent publication US7247645B2, “Dihydropyridine derivatives” (Ajinomoto Co., Inc., priority 1999, dated 2007)
Like-named read-outs stand apart in the source and are kept apart here.

Tests used:
L-type calcium channel = target: T1, L-type calcium channel (Rattus norvegicus, UniProt P22002); assay: Antagonistic activity on L-type calcium channel: relaxation of KCl contraction of rat thoracic aorta samples; conditions: High K+ (50 mM KCl) contraction
T1 construct: The slips of thoracic aorta extracted from a Sprague-Dawry rat was used; from tissue; host or cells: rat (Sprague-Dawley) thoracic aorta rings, endothelium removed
Description: The activity of the dihydropyridine derivatives of the present invention to inhibit L-type calcium channel was determined by the following method in which the relaxation reaction on the KCl contraction of samples of thoracic aorta extracted from rats was employed.
1) Method of preparation of samples of thoracic aorta extracted from rats:
The slips of thoracic aorta extracted from a Sprague-Dawry rat was used. The blood vessels were cut to obtain ring-shaped samples having a width of about 3 mm. The endothelial cells of the blood vessel were mechanically removed. The samples were suspended in a strain gage in Tyrode's solution (158.3 mM of NaCl, 4.0 mM of KCl, 1.05 mM of MgCl2, 0.42 mM of NaH2PO4, 10 mM of NaHCO3, 2 mM of CaCl2 and 5 mM of glucose) in which a gaseous mixture of O2 (95%) and CO2 (5%) was introduced. A static tension of 2 g was applied hereto. The tension of the blood vessel was amplified with transducer and a tension amplifier (EF-601G; Nihon Koden Corporation) and recorded with a multi-pen recorder (Rikadenki Kogyo Co., Ltd.). The experiments were conducted at 37° C.
2) Determination of Relaxation After KCl Contraction:
After the tension had been stabilized, the nutrient solution in the sample tank was replaced with High K^+ Tyrode's solution (112.3 mM of NaCl, 50 mM of KCl, 1.05 mM of MgCl2, 0.42 mM of NaH2PO4, 10 mM of NaHCO3, 2 mM of CaCl2 and 5 mM of glucose) to conduct the contraction reaction. 30 minutes after, the solution in the sample tank was replaced with the normal Tyrode's solution. The solution in the sample tank was again replaced with the High K^+ Tyrode's solution and the contraction reaction was observed. After attaining the maximum contraction reaction, the test compound was cumulatively added at intervals of […] to attain concentrations of 10^−7, 10^−6 and 10^−5M. The rate of the test compound to control the maximum contraction reaction was employed as the index of the inhibition activity on L-type calcium channel.

N-type calcium channel [1] = target: T2, N-type calcium channel (Homo sapiens, UniProt Q00975); assay: N-type calcium channel antagonistic activity, changed procedure (calcium concentration change in IMR-32 cells, calculated from inhibition rates); assay type: cell-based; conditions: 60 mM KCl stimulation, Table 10, read-out: N-type inhibition pIC50 (converted)
T2 sequence (Q00975 whole entry): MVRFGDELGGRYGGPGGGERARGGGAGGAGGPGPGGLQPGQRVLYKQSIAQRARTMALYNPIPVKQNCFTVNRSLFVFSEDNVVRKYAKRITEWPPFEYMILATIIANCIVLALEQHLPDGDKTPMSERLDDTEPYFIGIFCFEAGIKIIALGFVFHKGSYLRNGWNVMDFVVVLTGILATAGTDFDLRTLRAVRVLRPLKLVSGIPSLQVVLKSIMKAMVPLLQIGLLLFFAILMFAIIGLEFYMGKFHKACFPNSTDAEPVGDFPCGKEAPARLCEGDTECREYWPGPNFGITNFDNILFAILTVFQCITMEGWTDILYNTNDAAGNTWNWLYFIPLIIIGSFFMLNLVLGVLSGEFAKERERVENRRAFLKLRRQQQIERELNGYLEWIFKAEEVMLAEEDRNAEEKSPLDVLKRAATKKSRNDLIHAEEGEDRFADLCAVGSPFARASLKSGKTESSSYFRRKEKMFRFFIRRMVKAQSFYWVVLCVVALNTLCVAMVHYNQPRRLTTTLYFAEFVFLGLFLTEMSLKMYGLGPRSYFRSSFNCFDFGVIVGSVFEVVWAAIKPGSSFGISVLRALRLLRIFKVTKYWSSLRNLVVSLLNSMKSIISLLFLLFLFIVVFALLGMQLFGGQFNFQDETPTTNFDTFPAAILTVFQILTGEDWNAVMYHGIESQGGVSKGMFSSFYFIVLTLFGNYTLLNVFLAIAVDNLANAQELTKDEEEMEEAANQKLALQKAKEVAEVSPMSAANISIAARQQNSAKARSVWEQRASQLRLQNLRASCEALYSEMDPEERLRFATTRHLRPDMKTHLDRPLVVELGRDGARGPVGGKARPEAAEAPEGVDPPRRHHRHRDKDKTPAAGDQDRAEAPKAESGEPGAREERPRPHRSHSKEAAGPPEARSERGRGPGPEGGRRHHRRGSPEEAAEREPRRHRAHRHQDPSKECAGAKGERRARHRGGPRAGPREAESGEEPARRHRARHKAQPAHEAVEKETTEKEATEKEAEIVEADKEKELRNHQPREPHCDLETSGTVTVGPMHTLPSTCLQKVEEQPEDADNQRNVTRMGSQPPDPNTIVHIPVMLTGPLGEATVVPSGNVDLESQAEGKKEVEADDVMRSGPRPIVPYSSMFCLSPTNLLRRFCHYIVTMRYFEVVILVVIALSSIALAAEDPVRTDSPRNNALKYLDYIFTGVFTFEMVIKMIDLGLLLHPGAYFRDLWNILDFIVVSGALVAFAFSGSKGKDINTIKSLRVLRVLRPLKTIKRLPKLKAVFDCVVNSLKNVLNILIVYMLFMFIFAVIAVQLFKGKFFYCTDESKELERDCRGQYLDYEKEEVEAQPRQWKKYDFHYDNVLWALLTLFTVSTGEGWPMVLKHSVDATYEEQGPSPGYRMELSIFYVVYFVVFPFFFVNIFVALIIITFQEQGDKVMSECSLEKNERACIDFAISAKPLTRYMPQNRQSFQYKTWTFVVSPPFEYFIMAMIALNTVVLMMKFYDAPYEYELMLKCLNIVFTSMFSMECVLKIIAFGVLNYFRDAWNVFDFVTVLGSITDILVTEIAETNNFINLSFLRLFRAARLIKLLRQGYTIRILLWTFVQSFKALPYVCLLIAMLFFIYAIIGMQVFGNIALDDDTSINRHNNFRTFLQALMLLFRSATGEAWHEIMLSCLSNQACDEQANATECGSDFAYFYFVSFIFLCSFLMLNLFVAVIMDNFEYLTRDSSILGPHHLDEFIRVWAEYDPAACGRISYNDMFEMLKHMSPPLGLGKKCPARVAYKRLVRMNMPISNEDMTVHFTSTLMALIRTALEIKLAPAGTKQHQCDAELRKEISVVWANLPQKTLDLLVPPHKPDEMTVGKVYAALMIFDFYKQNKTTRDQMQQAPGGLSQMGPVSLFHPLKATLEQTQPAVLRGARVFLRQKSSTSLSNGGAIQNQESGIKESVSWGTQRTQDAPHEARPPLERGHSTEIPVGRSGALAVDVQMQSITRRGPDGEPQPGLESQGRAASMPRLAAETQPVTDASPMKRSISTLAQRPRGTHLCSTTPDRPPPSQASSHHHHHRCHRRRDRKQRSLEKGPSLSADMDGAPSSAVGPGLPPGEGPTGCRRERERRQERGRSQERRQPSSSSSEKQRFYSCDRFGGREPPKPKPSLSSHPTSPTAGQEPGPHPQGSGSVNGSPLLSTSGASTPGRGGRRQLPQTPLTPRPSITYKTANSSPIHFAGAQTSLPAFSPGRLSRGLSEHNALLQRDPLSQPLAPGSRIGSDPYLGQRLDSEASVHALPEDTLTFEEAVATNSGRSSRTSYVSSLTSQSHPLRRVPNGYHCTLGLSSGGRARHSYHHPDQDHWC
T2 sequence (P54289 25-1103 partner): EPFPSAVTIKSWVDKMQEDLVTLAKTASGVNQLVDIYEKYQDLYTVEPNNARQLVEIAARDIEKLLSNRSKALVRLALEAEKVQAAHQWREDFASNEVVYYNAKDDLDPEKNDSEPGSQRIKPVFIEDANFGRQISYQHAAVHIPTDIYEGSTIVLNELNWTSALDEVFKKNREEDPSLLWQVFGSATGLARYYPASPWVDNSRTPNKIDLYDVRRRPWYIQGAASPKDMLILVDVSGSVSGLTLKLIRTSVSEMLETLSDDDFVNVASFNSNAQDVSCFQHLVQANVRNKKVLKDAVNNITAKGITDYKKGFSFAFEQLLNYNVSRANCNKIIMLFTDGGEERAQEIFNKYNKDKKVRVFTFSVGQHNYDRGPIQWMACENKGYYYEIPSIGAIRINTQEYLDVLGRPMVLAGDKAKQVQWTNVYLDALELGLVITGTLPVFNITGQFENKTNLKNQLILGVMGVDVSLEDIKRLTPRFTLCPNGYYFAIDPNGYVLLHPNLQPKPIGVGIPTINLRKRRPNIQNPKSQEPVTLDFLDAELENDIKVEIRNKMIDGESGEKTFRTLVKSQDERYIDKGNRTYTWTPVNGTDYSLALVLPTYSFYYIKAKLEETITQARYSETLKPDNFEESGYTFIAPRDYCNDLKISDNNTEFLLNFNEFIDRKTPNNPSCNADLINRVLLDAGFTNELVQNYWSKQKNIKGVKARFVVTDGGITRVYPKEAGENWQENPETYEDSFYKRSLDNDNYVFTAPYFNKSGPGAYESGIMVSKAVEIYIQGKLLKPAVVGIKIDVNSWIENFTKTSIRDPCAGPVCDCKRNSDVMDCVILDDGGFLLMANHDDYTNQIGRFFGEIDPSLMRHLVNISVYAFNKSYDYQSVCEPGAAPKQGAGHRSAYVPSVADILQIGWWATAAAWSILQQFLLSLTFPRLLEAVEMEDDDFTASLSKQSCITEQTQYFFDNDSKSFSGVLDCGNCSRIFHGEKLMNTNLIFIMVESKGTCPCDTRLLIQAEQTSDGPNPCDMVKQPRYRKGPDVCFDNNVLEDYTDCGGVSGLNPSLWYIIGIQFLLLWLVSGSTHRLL
T2 sequence (P54284 whole entry partner): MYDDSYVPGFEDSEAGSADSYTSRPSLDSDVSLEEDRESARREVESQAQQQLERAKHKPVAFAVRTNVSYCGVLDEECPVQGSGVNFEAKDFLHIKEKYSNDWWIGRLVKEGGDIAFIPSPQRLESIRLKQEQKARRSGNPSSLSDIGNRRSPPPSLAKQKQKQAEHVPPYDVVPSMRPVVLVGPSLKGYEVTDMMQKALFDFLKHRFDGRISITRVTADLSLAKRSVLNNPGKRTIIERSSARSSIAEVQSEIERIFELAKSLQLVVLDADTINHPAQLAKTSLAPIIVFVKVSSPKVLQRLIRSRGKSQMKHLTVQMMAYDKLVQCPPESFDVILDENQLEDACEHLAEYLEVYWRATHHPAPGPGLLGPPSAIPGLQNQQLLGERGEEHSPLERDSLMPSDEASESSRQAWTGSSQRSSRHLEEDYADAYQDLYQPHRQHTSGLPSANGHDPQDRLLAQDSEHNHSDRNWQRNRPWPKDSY
Description: (§1) The medium used was a Phenol Red-free Eagle minimum essential medium (GIBCO) containing earle's salts supplement, 2 mM of L-glutamine (GIBCO), 1 mM of sodium pyruvate (pH 6.5) (GIBCO), antibiotic/antimicotic mixture (GIBCO) and 10% fetal calf serum (Cell Culture Technologies). 3 ml of 1×10^5/ml IMR-32 cells were spread on a glass dish (Iwaki Glass Co., Ltd.) having a diameter of 35 mm which was treated with poly-D-lysin (SIGMA) and collagen (COLLAGEN VITROGEN 100, Collagen Co.). After the culture for 2 days, 1 mM (final concentration) of dibutyl cAMP and 2.5 μM of bromodeoxyuridine (SIGMA) were added. After the culture for additional 10 to 14 days, the cells were subjected to the activity determination. The medium for IMR-32 cells thus prepared was replaced with 1 ml of Phenol Red-free Eagle minimum essential medium (GIBCO) containing […] 10 μM fura-2/AM (Dojin Kagaku, Co.) and earle's salts supplement, and the incubation was conducted at 25° C. for 1 hour.
(§2) Then the medium was replaced with Phenol Red-free Eagle minimum essential medium (GIBCO) containing earle's salts supplement, from which fura-2/AM had been removed. After the incubation at 37° C. for 1 hour, the medium was replaced with a recording medium (20 mM of HEPES-KOH, 115 mM of NaCl, 5.4 mM of KCl, 0.8 mM of MgCl2, 1.8 mM of CaCl2 and 13.8 mM of D-glucose). Antagonistic activity on N-type calcium channel was determined and analyzed by using a fluorescence microscope (Nikon Corporation) and an image analysis device ARGUS 50 (Hamamatsu Photonics). In particular, a recording medium (20 mM of HEPES-KOH, 115 mM of NaCl, 5.4 mM of KCl, 0.8 mM of MgCl2, 1.8 mM of CaCl2 and 13.8 mM of D-glucose) containing 1 μM of Nifedipine was given to the cells by reflux by a Y-tube method. Then a stimulating agent containing 60 mM of potassium chloride was rapidly given by the Y-tube method. Thereafter stimulating agents containing 60 mM of potassium chloride and 0.1, 1 or 10 μM of test compound were successively rapidly given by the Y-tube method to determine the antagonistic activity on the channel. Finally, a stimulating agent containing 60 mM of potassium chloride and 1 μM of omega conotoxin GVIA (Peptide institute, inc.) was rapidly given by the Y-tube method to realize a condition of 100% inhibition of N-type calcium channel.
The same procedure as that of the above-described tests was repeated except for the following changes: 60 mM of potassium chloride-containing stimulating agent was rapidly given by the Y-tube method while the calcium concentration change in the cells was examined in terms of N-type calcium channel activity. Then Stimulating agents containing 60 mM of potassium chloride and 0.1, 1 or 10 μM of test compound were successively and rapidly given by the Y-tube method. A change in calcium concentration in the cells was determined.

N-type calcium channel [2] = target: T2, N-type calcium channel; assay: Antagonistic activity on N-type calcium channel (fluorescence dye method), IMR-32 cells, in presence of 1 μM Nifedipine; assay type: cell-based; conditions: 60 mM KCl stimulation, 0.1, 1 or 10 μM test compound, Table 9, read-out: N-type inhibition pIC50 (converted)
Description: as §1, §2

[3] = Table 10, read-out: L-type inhibition IC50
[4] = Table 9, read-out: L-type inhibition IC50

Row | Compound | IC50 (L-type calcium channel; [3]) [nM] | IC50 (N-type calcium channel [1]) [nM] | IC50 (L-type calcium channel; [4]) [nM] | IC50 (N-type calcium channel [2]) [nM]
1 | COC(OC)C1=C(C(=O)OCCC(c2ccccc2)c2ccccc2)C(c2cccc(Cl)c2)C(C(=O)O)=C(C)N1 (stereo not shown) [Example 60, 3-(3,3-diphenylpropyl)4-(3-chlorophenyl)-2-dimethoxymethyl-6-methyl-1,4-dihydropyridine-3,5-dicarboxylate] | 3890 | 1580 |  | 
2 | CC1=C(C(=O)O)C(c2cccc(Cl)c2)C(C(=O)OCCC(c2ccccc2)c2ccccc2)=C(COCCc2ccncc2)N1 (stereo not shown) [Example 54, 5-(3,3-diphenylpropyl)4-(3-chlorophenyl)-2-methyl-6-(2-[pyridine-4-yl]ethoxymethyl)-1,4-dihydropyridine-3,5-dicarboxylate] | 1580 | 2000 |  | 
3 | CC1=C(C(=O)OCCC(c2ccccc2)c2ccccc2)C(c2cccc(Cl)c2)C(C(=O)O)=C(COCCN2CCCCC2)N1 (stereo not shown) [Example 23, 3-(3,3-diphenylpropane-1-yl)4-(3-chlorophenyl)-2-methyl-6-(2-(piperidine-1-yl)ethoxymethyl)-1,4-dihydropyridine-3,5-dicarboxylate] | 1820 | 1580 | 1800 | 1200
4 | CC1=C(C(=O)O)C(c2cccc(Cl)c2)C(C(=O)OCCC(c2ccccc2)c2ccccc2)=C(COCCO)N1 (stereo not shown) [Example 20, 3-(3,3-diphenylpropane-1-yl)4-(3-chlorophenyl)-2-(2-hydroxyethoxymethyl)-6-methyl-1,4-dihydropyridine-3,5-dicarboxylate] | 2880 | 3160 | 2780 | 1780
5 | CC1=C(C(=O)OCCC(c2ccccc2)c2ccccc2)C(c2cccc(Cl)c2)C(C(=O)N2CCN(C(=O)OC(C)(C)C)CC2)=C(C)N1 (stereo not shown) [Example 15, t-butyl 4-(4-(3-chlorophenyl)-5-(3,3-diphenylpropoxycarbonyl)-2,6-dimethyl-1,4-dihydropyridine-3-carbonyl)piperazine-1-carboxylate] |  |  | 20800 | 372
6 | CC1=C(C(=O)O)C(c2cccc(Cl)c2)C(C(=O)OCCC(c2ccccc2)c2ccccc2)=C(COCCc2cccnc2)N1 (stereo not shown) [Example 33, 5-(3,3-diphenyl-1-propyl)4-(3-chlorophenyl)-2-methyl-6-(2-(3-pyridine)ethoxy)methyl-1,4-dihydropyridine-3,5-dicarboxylate] | 1700 | 1580 |  | 

Results, then the molecule that gave them:

Row | IC50 (L-type calcium channel; [3]) [nM] | IC50 (N-type calcium channel [1]) [nM] | IC50 (L-type calcium channel; [4]) [nM] | IC50 (N-type calcium channel [2]) [nM] | Compound
7 | 4270 | 2000 | 4280 | 1200 | COCC1=C(C(=O)OCCC(c2ccccc2)c2ccccc2)C(c2cccc(Cl)c2)C(C(=O)O)=C(C)N1 (stereo not shown) [Example 14, 3-(3,3-diphenylpropane-1-yl)4-(3-chlorophenyl)-2-methoxymethyl-6-methyl-1,4-dihydropyridine-3,5-dicarboxylate]
8 | 1780 | 1580 |  |  | CC1=C(C(=O)O)C(c2cccc(Cl)c2)C(C(=O)OCCC(c2ccccc2)c2ccccc2)=C(C(F)(F)F)N1 (stereo not shown) [Example 57, 5-(3,3-diphenylpropyl)4-(3-chlorophenyl)-2-methyl-6-trifluoromethyl-1,4-dihydropyridine-3,5-dicarboxylate]
9 |  | 3980 | 2690 | 1580 | CC1=C(C(=O)O)C(c2cccc(Cl)c2)C(C(=O)OCCC(c2ccccc2)c2ccccc2)=C(COCCN2CCCCC2)N1 (stereo not shown) [Example 12, 5-(3,3-diphenylpropane-1-yl)4-(3-chlorophenyl)-2-methyl-6-(2-piperidine-1-yl-ethoxymethyl)-1,4-dihydropyridine-3,5-dicarboxylate]
